One test deals with PDE4. Description: PDE4 activity. The conditions noted are these: source human U937 cells. Type of test: biochemical. How it is done: PDE4 inhibition was measured by following a literature assay procedure (Cortizo J et al., J. Pharmacol., 1993, 108, 562-568). The assay method involves the following conditions.
Pre-Incubation Time/Temperature: 15 min at 25° C.
Incubation Time/Temperature. 20 min at 25° C.
Incubation buffer: 50 mM Tris-HCl, pH 7.5, 5 mM MgCl2 Quantitation method: Quantitation of [^3H]

The target in another test is T1, 5-LOX (Homo sapiens, UniProt P09917).
T1 construct: Source: Human PBML cells Substrate: Arachidonic acid; endogenous in cells; host or cells: Human PBML cells (peripheral blood mononuclear leukocytes)
T1 sequence (P09917 1-674): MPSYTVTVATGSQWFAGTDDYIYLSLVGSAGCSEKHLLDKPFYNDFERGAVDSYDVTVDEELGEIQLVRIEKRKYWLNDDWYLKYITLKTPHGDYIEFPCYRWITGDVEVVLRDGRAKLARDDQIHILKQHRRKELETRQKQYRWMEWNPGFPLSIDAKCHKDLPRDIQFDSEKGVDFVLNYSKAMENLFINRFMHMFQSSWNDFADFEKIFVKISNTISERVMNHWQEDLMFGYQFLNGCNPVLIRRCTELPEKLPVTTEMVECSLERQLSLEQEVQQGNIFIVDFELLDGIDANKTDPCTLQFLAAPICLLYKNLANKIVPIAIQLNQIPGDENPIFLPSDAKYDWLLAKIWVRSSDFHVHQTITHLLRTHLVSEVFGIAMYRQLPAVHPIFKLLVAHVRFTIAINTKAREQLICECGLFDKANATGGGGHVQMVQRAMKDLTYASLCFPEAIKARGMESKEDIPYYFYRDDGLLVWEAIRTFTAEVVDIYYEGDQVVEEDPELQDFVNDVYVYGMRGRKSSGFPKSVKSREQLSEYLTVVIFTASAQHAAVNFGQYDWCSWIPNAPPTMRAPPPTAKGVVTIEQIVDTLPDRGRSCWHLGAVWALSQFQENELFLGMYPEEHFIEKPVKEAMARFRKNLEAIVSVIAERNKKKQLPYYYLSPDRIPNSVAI
Briefly: 5-LOX activity. It is filed as biochemical. The note with it: source human PBML cells, LTB4 EIA. As to the method:
The assay method involves the following conditions. Source: Human PBML cells Substrate: Arachidonic acid
Pre-incubation Time/Temp.: 15 min at 37° C.
Incubation Time/Temp.: 15 min at 37° C.
Incubation buffer: HBSS (Hank's balanced salt solution) Quantitation method: EIA quantitation of LTB4 Significance criteria: >50% of maximum stimulation or inhibition The results are tabulated as shown in the table V.

The subject of a further test is DSS Induced colitis. Description: IBD-DSS model (DSS induced colitis test). Type of test: in vivo. The conditions noted are these: dosed Day 1 to 6, BALB/c mice, DSS 2%. How it is done:
DSS Induced colitis test was performed as described by Axelsson et al., 1998. Male BALB/c mice were selected in the age of 7-8 weeks for the study. Colitis in mice was induced by providing DSS (2%) in the drinking water from day 1 to 6. Mice were dosed from Day 1 to 6 with test compound suspended in vehicle containing 0.25% carboxymethylcellulose and 0.5% Tween 80. The control animals received vehicle alone. Body weight and disease activity index was recorded daily during the experiment. After 6 days of treatment, animals were sacrificed; colon weight and colon length was recorded.

The target in the next test is T2, Thromboxane synthase (Homo sapiens, UniProt P24557).
T2 construct: Source: Human Platelets; from tissue; host or cells: Human platelets
T2 sequence (P24557 1-533): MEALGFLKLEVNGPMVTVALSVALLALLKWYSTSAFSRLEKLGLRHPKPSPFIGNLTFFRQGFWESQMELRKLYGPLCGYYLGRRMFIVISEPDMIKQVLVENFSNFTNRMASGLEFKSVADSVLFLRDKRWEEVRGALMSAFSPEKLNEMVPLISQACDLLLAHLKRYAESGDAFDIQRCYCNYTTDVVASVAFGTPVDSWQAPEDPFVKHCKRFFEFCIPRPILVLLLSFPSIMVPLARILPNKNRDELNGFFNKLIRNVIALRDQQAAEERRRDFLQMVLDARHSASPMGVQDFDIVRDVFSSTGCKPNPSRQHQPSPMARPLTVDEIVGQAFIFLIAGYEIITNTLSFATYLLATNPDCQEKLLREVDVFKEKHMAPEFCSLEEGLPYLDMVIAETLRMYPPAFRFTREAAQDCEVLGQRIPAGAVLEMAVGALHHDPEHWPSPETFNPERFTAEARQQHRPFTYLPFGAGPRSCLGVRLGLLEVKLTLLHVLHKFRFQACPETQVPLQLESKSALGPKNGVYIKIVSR
Briefly: Thromboxane synthase activity. It is filed as biochemical. The note with it: source human platelets, TxB2 EIA. How it is done: The assay method involves the following conditions.
Pre-incubation Time/Temp.: 15 min at 25° C.
Incubation Time/Temp.: 3 min at 25° C.
Incubation buffer: 10 mM Tris-HCl, pH 7.4 Quantitation method: EIA quantitation of TxB2 Significance criteria: >50% of maximum stimulation or inhibition The results are tabulated as shown in the table VI.

The test system of test [1] is TNF-α. Briefly: In vitro measurement of TNF-α production in LPS-stimulated human PBMC (ELISA). It is filed as cell-based. The note with it: LPS 1 μg/ml, 18 h; for inhibition at 1 µM: read-out: TNF-α Inhibition (%) at Conc. (1 μM); for inhibition at 10 µM: read-out: TNF-α Inhibition (%) at Conc. (10 μM). How it is done:
This assay determines the effect of test compounds on the production of TNF-α in human Peripheral Blood Mononuclear Cells (PBMC). Compounds were tested for their ability to inhibit the activity of TNF-α in human PBMC. PBMC were isolated from blood (of healthy volunteers) using BD Vacutainer CPT™ (Cell preparation tube, BD Bio Science) and suspended in RPMI medium (Physiol. Res. 52: 593-598, 2003). The test compounds were pre-incubated with PBMC (0.5 million/incubation well) for 15 min. at 37° C. and then stimulated with Lipopolysaccharide (Escherichia coli: B4; 1 μg/ml) for 18 h at 37° C. in 5% CO2. The levels of TNF-α in the cell culture medium were estimated using enzyme-linked immunosorbent assay performed in a 96 well format as per the procedure of the manufacturer (Cayman Chemical, Ann Arbor, USA).

In test [2] the test system is TNF-α. Briefly: LPS induced sepsis for measurement of TNF-α inhibition in mice. Type of test: in vivo. The conditions noted are these: Mus musculus, 1.5 h; oral dosing; serum TNF-α 90 min after LPS i.p. How it is done:
The LPS induced sepsis model in mice was performed as described by Les sekut et al (J Lab Clin Med, 1994, 124, 813-820). Female Swiss albino mice were selected and the body weights were equivalent within each group. The mice were fasted for 20 h with free access to water. The mice were dosed orally with the test compound suspended in vehicle containing 0.5% Tween 80 in 0.25% Carboxy-methylcellulose sodium salt. The control mice were administered the vehicle alone. After 30 minutes of oral dosing, mice were injected with 500 μg of Lipopolysaccharide (Escherichia coli, LPS: B4 from Siga) in phosphate buffer saline solution into the intraperitoneal cavity of the mice. After 90 min of LPS administration mice were bled via retro-orbital sinus puncture. Blood samples were stored overnight at 4° C. Serum samples were collected by centrifuging the samples at 4000 rpm for 15 minutes at 4° C. Immediately the serum samples were analysed for TNF-α levels using commercially available mouse TNF-α ELISA kit (Amersham Biosciences) and assay was performed by the manufacturer instruction.

The test system of the next test is NCIH460 cells. Description: Anti-cancer screen (MTT), NCIH460. Type of test: cell-based. The conditions noted are these: Homo sapiens, NCI-H460, 48 h, concentrations tested 0.01-100 μM. How it is done: (§1) Experimental drugs are screened for anti-cancer activity in three cell lines for their GI50, TGI and LC50 values (using 5 concentrations for each compound). The cell lines are maintained in DMEM containing 10% fetal bovine serum. 96 well microtiter plates are inoculated with cells in 100 μL for 24 hours at 37° C., 5% CO2, 95% air and 100% relative humidity. 5000 HCT116 cells/well, 5000 NCIH460 cells/well, 10000 U251 cells/well and 5000 MDAMB231 cells/well are plated. A separate plate with these cell lines is also inoculated to determine cell viability before the addition of the compounds (T0).
(§2) Following 24-h incubation, experimental drugs are added to the 96 well plates. […]
(§3) Cells are incubated with compounds for 48 h followed by the addition of 10 μL 3-(4,5-Dimethyl-2-thiazolyl)-2,5-diphenyl-2H-tetrazolium (MTT) solution per well and a subsequent incubation at 37° C., 5% CO2, 95% air and 100% relative humidity, protected from light. […] Plates are agitated to ensure solution of the formazan crystals in DMSO and absorbance read at 570 nm.
(§4) Percent growth is calculated for each compound's concentration relative to the control and zero measurement wells (T0; viability right before compound addition). […]

The test system of another test is HCT116 cells. Briefly: Anti-cancer screen (MTT), HCT116. Type of test: cell-based. The note with it: Homo sapiens, HCT-116, 48 h, concentrations tested 0.01-100 μM. How it is done: as §1, §2, §3, §4
For a further test, the system named is U251 cells. Description: Anti-cancer screen (MTT), U251. Type of test: cell-based. The conditions noted are these: Homo sapiens, U-251, 48 h, concentrations tested 0.01-100 μM. How it is done:
as §1, §2, §3, §4

A further test relates to NCIH460, HCT116, U251. Briefly: Anti-cancer screen (MTT), mean over three cell lines. It is filed as cell-based. The conditions noted are these: mean of NCIH460, HCT116, U251. As to the method:
as §1, §2, §3, §4

Each structure is given as a SMILES string.

A word on the inhibition: it is the share of the control response that was lost under treatment. By ED50 is commonly meant the midpoint of the dose-response relation. A low value points to greater potency. `CSc1nc(-c2ccccc2)nc(NN2C(=O)C=C(C)C2=O)c1C#N` [Example 1, 4-(3-Methyl-2,5-dioxo-2,5-dihydro-1H-pyrrol-1-ylamino)-6-(methylthio)-2-phenylpyrimidine-5-carbonitrile]: the “PDE4 inhibition at 10 μM (%)” value in the test on PDE4 is recorded as 61%. Further, the inhibition at 10 µM against 5-LOX is 94%; at Thromboxane synthase, 96%; in the test with TNF-α [1] it was 92.7%. In addition, in the test with DSS Induced colitis, the “IBD-DSS Model % Inhibition of DAI at 50 mg/kg” value worked out at 47%. Also, the inhibition at 1 µM with TNF-α [1] stood at 57.3%. For the same molecule, the 50% effect level in the test on TNF-α [2] (ED50) was put at a dose of 3.1 mg/kg.

As to `COc1ccc(-c2nc(NN3C(=O)C=C(C)C3=O)c(C#N)c(SC)n2)cc1` [Example 2, 4-(Thiomethyl)-2-(4-methoxyphenyl)-6-(3-methyl-2,5-dioxo-2,5-dihydro-1H-pyrrol-1-ylamino)pyrimidine-5-carbonitrile], in the test with TNF-α [1], the inhibition at 1 µM is 50.9% and the inhibition at 10 µM came to 95.4%.

As usually defined, the GI50 is the concentration that inhibits growth by half. Read a low GI50 as more potent growth inhibition. As for `COc1ccc(-c2nc(NN3C(=O)C=C(C)C3=O)c(C#N)c(SC)n2)cc1S(N)(=O)=O` [Example 6, 5-(5-Cyano-4-(3-methyl-2,5-dioxo-2,5-dihydro-1H-pyrrol-1-ylamino)-6-(methylthio)pyrimidin-2-yl)-2-methoxybenzenesulfonamide], the concentration for 50% growth inhibition (GI50) in the test on NCIH460 cells came to 10.1 µM; in the test with HCT116 cells it was 4.9 µM; in the test with U251 cells it was 0.92 µM; in the test on NCIH460, HCT116, U251, 5.3 µM. Further, the inhibition at 10 µM with TNF-α [1] worked out at 88%.

For the molecule `CSc1nc(-c2cccc(S(N)(=O)=O)c2)nc(NN2C(=O)C=C(C)C2=O)c1C#N` [Example 10, 3-(5-Cyano-4-(3-methyl-2,5-dioxo-2,5-dihydro-1H-pyrrol-1-ylamino)-6-(methylthio)pyrimidin-2-yl)benzenesulfonamide], in the test on TNF-α [1], the inhibition at 1 µM turned out to be 20% and the inhibition at 10 µM came to 9.7%.

`CSc1nc(-c2cccs2)nc(NN)c1C#N` [Example 13, 4-Hydrazinyl-6-(methylthio)-2-(thiophen-2-yl)pyrimidine-5-carbonitrile]: in the test on TNF-α [1], the inhibition at 1 µM was found to be 13% and the inhibition at 10 µM was found to be 71%.

Take `COc1ccc(-c2nc(SC)c(C#N)c(N3CCN(c4ccccn4)CC3)n2)cc1` [Example 39, 2-(4-Methoxyphenyl)-4-(methylthio)-6-(4-(pyridin-2-yl)piperazin-1-yl)pyrimidine-5-carbonitrile]: in the test on TNF-α [1], the inhibition at 1 µM was 19.2% and the inhibition at 10 µM was found to be 34%.

Source of the values: US20080221103A1, “New heterocyclic compounds” (ORCHID RESEARCH LABORATORIES LTD., priority 2007, published 2008).
